In patent US7342011B2, “Rifamycin analogs and uses thereof” (priority 2003, dated 2008):
In brackets after ≈: the same amount, converted by molar mass.

Columns and labels:
Assay type in all cases: cell-based
E. faecalis = assay: MIC assay, E. faecalis
S. aureus = assay: MIC assay, S. aureus
H. flu = assay: MIC assay, H. flu
S. pneumo. = assay: MIC assay, S. pneumo.
E. coli = assay: MIC assay, E. coli

Row | SMILES | MIC (μg/mL) E. faecalis (E. faecalis) | MIC (μg/mL) S. aureus (S. aureus) | MIC (μg/mL) H. flu (H. flu) | MIC (μg/mL) S. pneumo. (S. pneumo.) | MIC (μg/mL) E. coli (E. coli)
1 | CCOC(=O)NCC1CCN(c2cc(O)c3nc4c5c6c7c(C)c(O)c5c(=O)c(c-4oc3c2)NC(=O)/C(C)=C\C=C\[C@H](C)[C@H](O)[C@@H](C)[C@@H](O)[C@@H](C)[C@H](OC(C)=O)[C@H](C)[C@@H](OC)/C=C/O[C@@](C)(O7)C6=O)CC1 [Compound 51, 3′-hydroxy-5′-[4-ethylcarbamylmethyl-1-piperidinyl]benzoxazinorifamycin] | 8 µg/mL (≈ 8.12 µM) | 0.06 µg/mL (≈ 0.0609 µM) | 0.25 µg/mL (≈ 0.254 µM) | 0.002 µg/mL (≈ 0.00203 µM) | 8 µg/mL (≈ 8.12 µM)
2 | CO[C@H]1/C=C/O[C@@]2(C)Oc3c(C)c(O)c4c(=O)c(c5oc6cc(N7CCC(CNC(C)=O)CC7)cc(O)c6nc-5c4c3C2=O)NC(=O)/C(C)=C\C=C\[C@H](C)[C@H](O)[C@@H](C)[C@@H](O)[C@@H](C)[C@H](OC(C)=O)[C@@H]1C [Compound 55, 3′-hydroxy-5′-[4-acetylaminomethyl-1-piperidinyl]benzoxazinorifamycin] | 1 µg/mL (≈ 1.05 µM) | 0.008 µg/mL (≈ 0.00838 µM) | 0.5 µg/mL (≈ 0.524 µM) | 0.00025 µg/mL (≈ 0.000262 µM) | 8 µg/mL (≈ 8.38 µM)
3 | CO[C@H]1/C=C/O[C@@]2(C)Oc3c(C)c(O)c4c(=O)c(c5oc6cc(N7CCC(c8ccccc8)CC7)cc(O)c6nc-5c4c3C2=O)NC(=O)/C(C)=C\C=C\[C@H](C)[C@H](O)[C@@H](C)[C@@H](O)[C@@H](C)[C@H](OC(C)=O)[C@@H]1C [Compound 57, 3′-hydroxy-5′-[4-phenyl-1-piperidinyl]benzoxazinorifamycin] | 2 µg/mL (≈ 2.08 µM) | 0.008 µg/mL (≈ 0.00833 µM) | 0.5 µg/mL (≈ 0.521 µM) | 0.0005 µg/mL (≈ 0.000521 µM) | 8 µg/mL (≈ 8.33 µM)
4 | CO[C@H]1/C=C/O[C@@]2(C)Oc3c(C)c(O)c4c(=O)c(c5oc6cc(N7C[C@@H]8CCCN(C)[C@@H]8C7)cc(O)c6nc-5c4c3C2=O)NC(=O)/C(C)=C\C=C\[C@H](C)[C@H](O)[C@@H](C)[C@@H](O)[C@@H](C)[C@H](OC(C)=O)[C@@H]1C [Compound 58, 3′-hydroxy-5′-[1-methyl-(4aS,7aS)-octahydro-6H-pyrrolo[3,4-b]pyridin-6-yl]benzoxazinorifamycin] | 1 µg/mL (≈ 1.06 µM) | 0.03 µg/mL (≈ 0.0319 µM) | 0.25 µg/mL (≈ 0.266 µM) | 0.004 µg/mL (≈ 0.00426 µM) | >8 µg/mL
5 | CO[C@H]1/C=C/O[C@@]2(C)Oc3c(C)c(O)c4c(=O)c(c5oc6cc(N7C[C@@H]8CCCN(C)[C@@H]8C7)cc(O)c6nc-5c4c3C2=O)NC(=O)/C(C)=C\C=C\[C@H](C)[C@H](O)[C@@H](C)[C@@H](O)[C@@H](C)[C@H](O)[C@@H]1C [Compound 59, 25-O-deacetyl-3′-hydroxy-5′-[1-methyl-(4aS,7aS)-octahydro-6H-pyrrolo[3,4-b]pyridin-6-yl]benzoxazinorifamycin] | 0.06 µg/mL (≈ 0.0669 µM) | 0.004 µg/mL (≈ 0.00446 µM) | 0.12 µg/mL (≈ 0.134 µM) | 0.001 µg/mL (≈ 0.00111 µM) | 4 µg/mL (≈ 4.46 µM)
6 | CO[C@H]1/C=C/O[C@@]2(C)Oc3c(C)c(O)c4c(=O)c(c5oc6cc(N7CCC(CCO)CC7)cc(O)c6nc-5c4c3C2=O)NC(=O)/C(C)=C\C=C\[C@H](C)[C@H](O)[C@@H](C)[C@@H](O)[C@@H](C)[C@H](OC(C)=O)[C@@H]1C [Compound 61, 3′-hydroxy-5′-[4-(2-hydroxyethyl)-1-piperidinyl]benzoxazinorifamycin] | 1 µg/mL (≈ 1.08 µM) | 0.004 µg/mL (≈ 0.00431 µM) | 0.25 µg/mL (≈ 0.269 µM) | 0.00012 µg/mL (≈ 0.000129 µM) | >8 µg/mL
7 | CO[C@H]1/C=C/O[C@@]2(C)Oc3c(C)c(O)c4c(=O)c(c5sc6cc(N7C[C@@H](C)N[C@@H](C)C7)ccc6nc-5c4c3C2=O)NC(=O)/C(C)=C\C=C\[C@H](C)[C@H](O)[C@@H](C)[C@@H](O)[C@@H](C)[C@H](OC(C)=O)[C@@H]1C [Compound 64, 5′-[(3R,5S)-3,5-dimethyl-1-piperazinyl]benzthiazinorifamycin] | 0.12 µg/mL (≈ 0.131 µM) | 0.004 µg/mL (≈ 0.00438 µM) | 0.25 µg/mL (≈ 0.274 µM) | 0.00012 µg/mL (≈ 0.000131 µM) | 4 µg/mL (≈ 4.38 µM)
8 | CO[C@H]1/C=C/O[C@@]2(C)Oc3c(C)c(O)c4c(=O)c(c5oc6cc(N7CCC(CCO)CC7)cc(O)c6nc-5c4c3C2=O)NC(=O)/C(C)=C\C=C\[C@H](C)[C@H](O)[C@@H](C)[C@@H](O)[C@@H](C)[C@H](O)[C@@H]1C [Compound 66, 25-O-deacetyl-3′-hydroxy-5′-[4-(2-hydroxyethyl)-1-piperidinyl]benzoxazinorifamycin] | 0.12 µg/mL (≈ 0.135 µM) | 0.004 µg/mL (≈ 0.00451 µM) | 0.12 µg/mL (≈ 0.135 µM) | 0.0005 µg/mL (≈ 0.000564 µM) | 4 µg/mL (≈ 4.51 µM)
9 | CO[C@H]1/C=C/O[C@@]2(C)Oc3c(C)c(O)c4c(=O)c(c5sc6cc(N7C[C@@H](C)N(CC8CC8)C[C@@H]7C)ccc6nc-5c4c3C2=O)NC(=O)/C(C)=C\C=C\[C@H](C)[C@H](O)[C@@H](C)[C@@H](O)[C@@H](C)[C@H](OC(C)=O)[C@@H]1C [Compound 68, 5′-[(2S,5R)-4-(cyclopropylmethyl)-2,5-dimethylpiperazinyl]benzthiazinorifamycin] | 2 µg/mL (≈ 2.07 µM) | 0.06 µg/mL (≈ 0.062 µM) | 0.5 µg/mL (≈ 0.517 µM) | 0.0005 µg/mL (≈ 0.000517 µM) | >8 µg/mL
10 | CO[C@H]1/C=C/O[C@@]2(C)Oc3c(C)c(O)c4c(=O)c(c5sc6cc(N7CCC(N(C)C)CC7)ccc6nc-5c4c3C2=O)NC(=O)/C(C)=C\C=C\[C@H](C)[C@H](O)[C@@H](C)[C@@H](O)[C@@H](C)[C@H](OC(C)=O)[C@@H]1C [Compound 69, 5′-[4-N,N-dimethylamino-1-piperidinyl]benzthiazinorifamycin] | 0.5 µg/mL (≈ 0.539 µM) | 0.015 µg/mL (≈ 0.0162 µM) | 0.5 µg/mL (≈ 0.539 µM) | 0.00025 µg/mL (≈ 0.00027 µM) | 4 µg/mL (≈ 4.31 µM)
11 | CO[C@H]1/C=C/O[C@@]2(C)Oc3c(C)c(O)c4c(=O)c(c5oc6cc(N7CCC(C)(N(C)C)CC7)cc(O)c6nc-5c4c3C2=O)NC(=O)/C(C)=C\C=C\[C@H](C)[C@H](O)[C@@H](C)[C@@H](O)[C@@H](C)[C@H](OC(C)=O)[C@@H]1C [Compound 71, 3′-hydroxy-5′-[4-methyl-4-N,N-dimethylamino-1-piperidinyl]benzoxazinorifamycin] | 0.25 µg/mL (≈ 0.266 µM) | 0.008 µg/mL (≈ 0.0085 µM) | 0.5 µg/mL (≈ 0.531 µM) | 0.00012 µg/mL (≈ 0.000128 µM) | 4 µg/mL (≈ 4.25 µM)
12 | CO[C@H]1/C=C/O[C@@]2(C)Oc3c(C)c(O)c4c(=O)c(c5oc6cc(N7CCC(C)(NC(C)=O)CC7)cc(O)c6nc-5c4c3C2=O)NC(=O)/C(C)=C\C=C\[C@H](C)[C@H](O)[C@@H](C)[C@@H](O)[C@@H](C)[C@H](OC(C)=O)[C@@H]1C [Compound 72, 3′-hydroxy-5′-[4-methyl-4-acetylamino-1-piperidinyl]benzoxazinorifamycin] | 2 µg/mL (≈ 2.09 µM) | 0.008 µg/mL (≈ 0.00838 µM) | 0.5 µg/mL (≈ 0.524 µM) | 0.00025 µg/mL (≈ 0.000262 µM) | >8 µg/mL
13 | CO[C@H]1/C=C/O[C@@]2(C)Oc3c(C)c(O)c4c(=O)c(c5oc6cc(N7CCC(C)(N(C)C)CC7)cc(O)c6nc-5c4c3C2=O)NC(=O)/C(C)=C\C=C\[C@H](C)[C@H](O)[C@@H](C)[C@@H](O)[C@@H](C)[C@H](O)[C@@H]1C [Compound 73, 25-O-deacetyl-3′-hydroxy-5′-[4-methyl-4-N,N-dimethylamino-1-piperidinyl]benzoxazinorifamycin] | 0.03 µg/mL (≈ 0.0334 µM) | 0.002 µg/mL (≈ 0.00222 µM) | 0.12 µg/mL (≈ 0.133 µM) | 0.00025 µg/mL (≈ 0.000278 µM) | 2 µg/mL (≈ 2.22 µM)
14 | CO[C@H]1/C=C/O[C@@]2(C)Oc3c(C)c(O)c4c(=O)c(c5oc6cc(N7CC[C@@H](N(C)C)C7)cc(O)c6nc-5c4c3C2=O)NC(=O)/C(C)=C\C=C\[C@H](C)[C@H](O)[C@@H](C)[C@@H](O)[C@@H](C)[C@H](OC(C)=O)[C@@H]1C [Compound 75, 3′-hydroxy-5′-[(3R)-N,N-dimethylamino-1-pyrrolidinyl]benzoxazinorifamycin] | 0.12 µg/mL (≈ 0.131 µM) | 0.002 µg/mL (≈ 0.00219 µM) | 0.25 µg/mL (≈ 0.274 µM) | 0.00012 µg/mL (≈ 0.000131 µM) | 4 µg/mL (≈ 4.38 µM)
15 | CO[C@H]1/C=C/O[C@@]2(C)Oc3c(C)c(O)c4c(=O)c(c5sc6cc(N7CCN8CCC[C@H]8C7)ccc6nc-5c4c3C2=O)NC(=O)/C(C)=C\C=C\[C@H](C)[C@H](O)[C@@H](C)[C@@H](O)[C@@H](C)[C@H](OC(C)=O)[C@@H]1C [Compound 76, 5′-[(8aS)octahydropyrrolo[1,2-a]pyrazin-2-yl]benzthiazinorifamycin] | 0.5 µg/mL (≈ 0.54 µM) | 0.008 µg/mL (≈ 0.00865 µM) | 0.25 µg/mL (≈ 0.27 µM) | 0.00025 µg/mL (≈ 0.00027 µM) | 4 µg/mL (≈ 4.32 µM)
